Residues, ends and D or L forms follow the SMILES beside them. *: point of attachment. Cbz = O=C(OCc1ccccc1)*; CH2F = FC*

This assay has as its system SQ-20B, BT-20, U373, HeLa and NCI-H520 cells. Briefly: CATI-1 induced apoptosis in presence of caspase inhibitor I (flow cytometry). Conditions: 50 μM caspase inhibitor I with 50 μM CATI-1, 24 hours; any cell line tested. The class given is cell-based, human. The protocol: The percentages indicate the fraction of cells at an early stage of apoptosis (lower right quadrant), as measured by single MC540 fluorescence, and the fraction of cells at an advanced stage of apoptosis (upper right quadrant).
Quantitative flow cytometric apoptosis detection assays were performed on BT-20 (breast cancer), PC-3 (prostate cancer), U373 (glioblastoma), SQ20B (squamous cell carcinoma), HeLa (cervix cancer), and DU145 (prostate cancer). Just prior to the assay, one mg/ml stock solutions of MC540 (Sigma, St. Louis, Mo.) and PI (Sigma, St. Louis, Mo.) were filtered through a 0.22 μm filter and stored at 4° C. in the dark. […] Stained cells were analyzed with a FACStar Plus flow cytometer (Becton Dickinson, San Jose, Calif.) using the 488-nm excitation from an argon laser. […] In each experiment approximately 10,000 cells were analyzed by FACS and the percentage of cells at early (MC540 fluorescence only) and advanced (dual MC540 plus PI fluorescence) stages of apoptosis obtained.
Human cancer cell lines were treated with 50 μM CATI-1 in the presence and absence of 50 μM caspase inhibitor I (Z-Val-Ala-Asp(Ome)-CH2F) (Calbiochem, La Jolla, Calif.) for 24 hours to determine whether caspases were required for cathepsin inhibitor activity. […] Quantitative flow cytometric apoptosis detection assays were performed on treated cells as previously discussed in Example II.
(In general: In flow cytometry, cells or beads pass a laser one at a time.)

For the molecule `COC(=O)C[C@H](NC(=O)[C@H](C)NC(=O)[C@@H](NC(=O)OCc1ccccc1)C(C)C)C(=O)CF` [caspase inhibitor I, Z-Val-Ala-Asp(Ome)-CH2F] (Cbz-Val-Ala-Asp(OMe)-CH2F), the “impact on CATI-1 induced apoptosis” value is listed as “no detectable impact”.

For the origin of these results see patent publication US6605589B1, “Cathepsin inhibitors in cancer treatment” (Parker Hughes Institute, priority 2000, dated 2003).
